Test system: guinea pigs
Assay: Antigen induced anaphylaxis in guinea pigs (ovalbumin aerosol challenge of sensitized animals)
Format: in vivo
Settings: percent inhibition of anaphylaxis (severity index vs placebo), two hours prior to aerosol challenge
Experimental: Following the general procedure taught by Andersson, Brit. J. Pharmacol., 69, 467 (1980), mixed sex Hartley strain guinea pigs (250-300 g) were sensitized to ovalbumin by a single injection of 1 mcg of ovalbumin mixed with 50 mg of aluminum hydroxide per animal. These animals were used 21 to 26 days later for aerosol challenge with ovalbumin.
Anaphylaxis was induced by exposure to an aerosol of 10 mg of ovalbumin per milliliter of water for 10 minutes delivered by a Tri-R venturi nebulizer, particle size 2 to 5 micron diameter, at a delivery rate of 0.4 ml of solution per minute. The guinea pigs were placed in specially constructed chamber for exposure to the aerosol. The aerosol was introduced from the bottom of the chamber and exhausted at the top. A baffle above the chamber inlet port provided even distribution of the aerosol throughout the chamber. The animals were supported above the inlet on a wire mesh disc. The chamber was under slight negative pressure to enhance the exhaust of the aerosol which was passed through a calcium chloride trap followed by a super-cooled condenser trap.
Groups of five guinea pigs were treated with the compounds of this invention, clinical anti-asthmatic agents, or placebo (vehicle only) two hours prior to the aerosol challenge. All the animals also received 3 mg/kg pyrillamine orally two hours prior to the aerosol challenge in order to blunt the histamine component of the anaphylaxis. The compounds were administered orally as a suspension in 10% acacia or intraperitoneally in 10% acacia.
The number of animals that responded to the aerosol challenge for each of the above parameters as well as the time for the response to occur were recorded. The data were analyzed by comparing the severity index (the sum of the number of animals that coughed, collapsed, and/or died) between the treated and placebo group of guinea pigs. Thus, the maximum severity index for each group of five guinea pigs is 15. On the average, the severity index for the placebo group was 10-12. The percent inhibition of anaphylaxis was determined by the following formula: [formula] where Sd is the severity index for the drug treated animals and Sp is the severity index of the placebo treated animals.

SMILES | Percent Inhibition (dose 10 mg/kg, I.P.) [%] | Percent Inhibition (dose 30 mg/kg, I.P.) [%] | Percent Inhibition (dose 50 mg/kg, I.P.) | Percent Inhibition (dose 50 mg/kg, P.O.) [%]
CCOc1cc2cc(C(=O)N(CC)CC)sc2cc1OCC [Example 3, N,N-Diethyl-5,6-diethoxybenzo[b]thiophene-2-carboxamide] | 44 | 89 | 82% | 38
CCOc1cc2cc(C(=O)Nc3nnn[nH]3)sc2cc1OCC [Example 4, 5,6-Diethoxy-N-1H-tetrazol-5-ylbenzo[b]thiophene-2-carboxamide] |  |  |  | 56
CCOc1cc2cc(C#N)sc2cc1OCC [Example 5, 5,6-Diethoxybenzo[b]thiophene-2-carbonitrile] |  | 69 | 74-84% | 22
CCOc1cc2cc(-c3nnn[nH]3)sc2cc1OCC [Example 6, 5-(5,6-Diethoxybenzo[b]thien-2-yl)-1H-tetrazole] |  |  |  | 43
CCOc1cc2cc(CO)sc2cc1OCC [Example 7, 5,6-Diethoxybenzo[b]thiophene-2-methanol] |  | 89 | 74% | 68
